Laboratory results reported in US10987344B2, “Pharmaceutical composition capable of the incorporation of lenalidomide in various crystalline modifications” (GRINDEKS, A JOINT STOCK COMPANY, priority 2015, dated 2021).
≈ marks a conversion by molar mass, not a printed value. Structures can show the parent of a compound that is named as a salt. Where two headings read alike, the source gives them in different places.

How the values were obtained:
[1] = Solubility of Lenalidomide modifications: saturated solutions in three media, HPLC analysis; assay type: physicochemical
Protocol: As the case for their visual appearance, also the solubility of those different Lenalidomide modifications is quite different.
• Solubilities are determined by preparing saturated solutions in the three media, followed by HPLC-analysis.

[2] = Particle size distribution (d90), Malvern Mastersizer 2000, wet dispersion in cyclohexane; assay type: physicochemical
Protocol: The D90 value is defined such that 90% by volume of the particles have a particle size smaller than the d90 value and 10% by volume of the particles have a greater particle size greater than the d90 value.
Sample solution. Place 50 mg of well mixed sample to a 100 mL beaker. Add 25 mL of cyclohexane. Using Pasteur pipette transfer small aliquots of sample slurry to the measuring cuvette until the concentration reading is good. The beaker is swirled efficiently before each pipetting.
Measurement according to the operating instructions. Perform three successive determinations, from which calculate the mean value.

[3] = as prepared in reference example 1 (not milled)
[4] = 0.1M hydrochloric acid, pH 1, simulated gastric fluid, thermodynamic from solid, 0.1M HCl, pH 1.0, read-out: Solubility
[5] = acetate buffer, pH 4.5, aqueous buffer, thermodynamic from solid, Acetate buffer, pH 4.5, read-out: Solubility
[6] = phosphate buffer, pH 6.8, aqueous buffer, thermodynamic from solid, Phosphate buffer, pH 6.8, read-out: Solubility

SMILES	Solubility ([1]; 0.1M HCl, pH 1.0) [µg/mL]	Solubility ([1]; Acetate buffer, pH 4.5) [µg/mL]	Solubility ([1]; Phosphate buffer, pH 6.8) [µg/mL]	PSD, d90 [2, 3] [μm]	PSD, d90 ([2]; example 2, after milling 15 min at 20 Hz) [μm]	Solubility [1, 4] [µg/mL]	Solubility [1, 5] [µg/mL]	Solubility [1, 6] [µg/mL]	Solubility relative to base form B ([1]; 0.1M hydrochloric acid at pH1)	PSD, d90 ([2]; example 2, after milling 15 min at 20 Hz, listed as Hydrochloride salt) [μm]	PSD, d90 ([2]; example 2, after milling 15 min at 20 Hz, listed as Ammonium chloride cocrystal) [μm]
Nc1cccc2c1CN(C1CCC(=O)NC1=O)C2=O (racemic) [Base form A, (RS)-3-(4-Amino-1-oxo 1,3-dihydro-2H-isoindol-2-yl)piperidine-2,6-dione]	4760 (≈ 18400 µM)	430 (≈ 1660 µM)	390 (≈ 1500 µM)	219	35	–	–	–	–	–	–
Nc1cccc2c1CN(C1CCC(=O)NC1=O)C2=O (racemic) [Base form B, (RS)-3-(4-Amino-1-oxo 1,3-dihydro-2H-isoindol-2-yl)piperidine-2,6-dione]	–	–	–	–	–	2740 (≈ 10600 µM)	330 (≈ 1270 µM)	330 (≈ 1270 µM)	–	–	–

Next, values leading:

Solubility ([1]; 0.1M HCl, pH 1.0) [µg/mL]	Solubility ([1]; Acetate buffer, pH 4.5) [µg/mL]	Solubility ([1]; Phosphate buffer, pH 6.8) [µg/mL]	PSD, d90 [2, 3] [μm]	PSD, d90 ([2]; example 2, after milling 15 min at 20 Hz) [μm]	Solubility [1, 4] [µg/mL]	Solubility [1, 5] [µg/mL]	Solubility [1, 6] [µg/mL]	Solubility relative to base form B ([1]; 0.1M hydrochloric acid at pH1)	PSD, d90 ([2]; example 2, after milling 15 min at 20 Hz, listed as Hydrochloride salt) [μm]	PSD, d90 ([2]; example 2, after milling 15 min at 20 Hz, listed as Ammonium chloride cocrystal) [μm]	SMILES
–	–	–	–	–	6330	380	350	–	–	–	Nc1cccc2c1CN(C1CCC(=O)NC1=O)C2=O (stereo not shown) [DMSO solvate]
9000	370	330	434	–	–	–	–	more than 3 times	43	–	Nc1cccc2c1CN(C1CCC(=O)NC1=O)C2=O (stereo not shown) [HCl salt]
7760	420	360	383	–	–	–	–	–	–	31	Nc1cccc2c1CN(C1CCC(=O)NC1=O)C2=O (stereo not shown) [NH4Cl cocrystal]
